Assay [1] deals with Swiss 3T3 cells. The note with it: cited from earlier work.
For assay [2], the system named is Swiss 3T3 cells. Description: specificity: DNA synthesis with a variety of other mitogens in Swiss 3T3 cells. Format: cell-based, murine.
For assay [3], the system named is SCLC cell lines. In words: calcium mobilisation tests in SCLC cell lines. Format: cell-based. The note with it: 20 µM. As to the method:
These responses can be blocked by 20 µM antagonist D in 3 of 3 lines tested (H69, H345, H510A) and by 20 µM antagonist G in H510A.

In assay [4] the test system is small cell lung cancer (SCLC) cell line. Description: growth in vitro of small cell lung cancer cell lines. It is filed as cell-based. As to the method:
The ability of antagonists A, D and G to inhibit the growth in vitro of a small cell lung cancer (SCLC) cell line was tested. The cell lines used were • a) H69 and H128 from the ATCC in Maryland USA; • b) H209, H345 and H510A obtained from Dr. A. Gazdar at NCI, NIH, Maryland USA; • c) UCH25 from Dr. P. Beverley, University College, London, England.

Assay [5] deals with vasopressin receptor. Conditions: Swiss 3T3 cells; cited from earlier work.
Assay [6] deals with Swiss 3T3 cells. Conditions: for IC50: read-out: IC50 for inhibition of mitogenesis induced by bradykinin, 9.4 nM bradykinin, 1 µg/ml insulin.
Assay [7] deals with Swiss 3T3 cells. The note with it: earlier patent application and references 10, 11; cited from earlier work.
Assay [8] relates to Swiss 3T3 cells. Description: vasopressin-stimulated DNA synthesis in Swiss 3T3 cells. Format: cell-based, murine.
The subject of assay [9] is Swiss 3T3 cells. In words: GRP-induced DNA synthesis ([3H]thymidine incorporation) in quiescent Swiss 3T3 cells. It is filed as cell-based, murine. A general note: Dividing cells build labelled thymidine or BrdU into new DNA.
The test system of assay [10] is bombesin receptor. Conditions: Swiss 3T3 cells; cited from earlier work.

Residues, ends and D or L forms follow the SMILES beside them.

As for `CC(C)C[C@H](NC(=O)[C@H](CC(C)C)NC(=O)[C@@H](Cc1c[nH]c2ccccc12)NC(=O)[C@H](Cc1ccccc1)NC(=O)[C@@H](Cc1c[nH]c2ccccc12)NC(=O)[C@H](CCC(N)=O)NC(=O)[C@@H](Cc1ccccc1)NC(=O)[C@@H]1CCCN1C(=O)[C@H](CCCCN)NC(=O)[C@@H]1CCCN1C(=O)[C@H](N)CCCNC(=N)N)C(N)=O` [antagonist D, D-Arg-Pro-Lys-Pro-D-Phe-Gln-D-Trp-Phe-D-Trp-Leu-Leu-NH2] (HELM PEPTIDE1{[dR].P.K.P.[dF].Q.[dW].F.[dW].L.L.[am]}$$$$V2.0), the “inhibition of vasopressin-stimulated DNA synthesis” value in [1] was “inhibit”. Also, the “inhibition of mitogenesis stimulated by EGF, PDGF, phorbol dibutyrate, cholera toxin and 8-bromo-cAMP” value in [2] was “Neither of them inhibited”. Moreover, in assay [2] (GRP 3.6 nM, bombesin 1.2 nM, litorin 1.8 nM, 20 µM antagonist D or 1 µM LψLB), the “effect against various bombesin-like peptides (DNA synthesis)” value is “effective”. The “inhibition of mitogenesis stimulated by VIP” value in [2] (VIP 3.0 nM, 20 µM antagonist D or 1 µM LψLB) is “Neither antagonist D nor [Leu^13-ψ(CH2NH)Leu^14]bombesin inhibited”. In assay [2] (mitogens bombesin/GRP, bradykinin, vasopressin), the “increase in potency against each mitogen relative to antagonist A” value is reported as 5-10 fold. For the same compound, the “SCLC lines in which the Ca2+ responses were blocked, of lines tested” value in assay [3] is listed as 3 of 3. Further, the “transient elevation of intracellular [Ca2+] in response to bradykinin, GRP and vasopressin” value in assay [3] (H69, H345, H510A) was “blocked”. For the same compound, the “potency in inhibiting growth of SCLC relative to Antagonist A” value in assay [4] is recorded as 5-10 fold. In assay [4] (SCLC cell lines), the “cell lines in which growth inhibition was found, of cell lines tested” value is 6 of 6 and the “concentration that abolishes cell growth” value was in the range of 40 to 50 µM. Also, the “inhibition of [3H]vasopressin binding” value in [5] is on record as “inhibit”. Besides, the IC50 in assay [6] came out at 8.3 µM. In [7], the “potency as bombesin antagonist relative to antagonist A” value is 5-10 fold. For the same compound, the “inhibition of vasopressin-induced DNA synthesis” value in assay [8] (20 µM antagonist D, LψLB at concentrations that strongly inhibited GRP-induced mitogenesis (1 µM)) is “potent inhibitor”.
Take `CC(C)C[C@H](NC(=O)[C@H](CC(C)C)NC(=O)[C@@H](Cc1c[nH]c2ccccc12)NC(=O)[C@H](Cc1ccccc1)NC(=O)[C@@H](Cc1c[nH]c2ccccc12)NC(=O)[C@H](CCC(N)=O)NC(=O)[C@H](CCC(N)=O)NC(=O)[C@@H]1CCCN1C(=O)[C@H](CCCCN)NC(=O)[C@H]1CCCN1C(=O)[C@H](N)CCCNC(=N)N)C(N)=O` [antagonist A, D-Arg-D-Pro-Lys-Pro-Gln-Gln-D-Trp-Phe-D-Trp-Leu-Leu-NH2] (HELM PEPTIDE1{[dR].[dP].K.P.Q.Q.[dW].F.[dW].L.L.[am]}$$$$V2.0): the “inhibition of vasopressin-stimulated DNA synthesis” value in assay [1] is recorded as “inhibit”. The “concentrations effective in inhibiting growth of SCLC” value in assay [4] (H69, H82, H128, H417 and UCH25) lay within 50 to 150 µM. Moreover, in assay [4] (SCLC cell lines), the “cell lines in which growth inhibition was found, of cell lines tested” value was 5 of 5. The “inhibition of [3H]vasopressin binding” value in [5] is recorded as “inhibit”. In addition, the IC50 in assay [6] is 90 µM.
For the compound `CSCC[C@H](NC(=O)[C@H](CC(C)C)NC(=O)[C@@H](Cc1c[nH]c2ccccc12)NC(=O)[C@H](Cc1ccccc1)N(C)C(=O)[C@@H](Cc1c[nH]c2ccccc12)NC(=O)[C@@H](N)CCCNC(=N)N)C(N)=O` [antagonist G, Arg.D-Trp.MePhe.D-Trp-Leu-Met-NH2] (HELM PEPTIDE1{R.[dW].[meF].[dW].L.M.[am]}$$$$V2.0), the “potency as antagonist of growth induced by GRP, compared with Antagonist D” value in assay [9] is “less potent”. In addition, the “transient elevation of intracellular [Ca2+] in response to bradykinin, GRP and vasopressin” value in assay [3] (H510A) is on record as “blocked”. In assay [4] (H69, H209, H345 and H510A), the “inhibition of growth in SCLC cells, compared with antagonist D” value is “equipotent with antagonist D”. Further, in assay [4] (SCLC cell lines), the “cell lines in which growth inhibition was found, of cell lines tested” value is given as 4 of 4. Moreover, in assay [6] (Swiss 3T3 cells), the “potency as antagonist of growth induced by bradykinin, compared with Antagonist D” value is on record as “less potent”. Besides, in assay [8] (Swiss 3T3 cells), the “potency as antagonist of vasopressin induced cell growth, compared with Antagonist D” value is “as potent as Antagonist D”.
For the compound “Arg-Pro-Lys-Pro-Gln-Gln-Phe-Phe-Gly-Leu-Met-NH2 [substance P]”, the “binding of [125I]GRP” value in [10] was “neither inhibits”.

As a reminder, the IC50 is the concentration at which inhibition is half-maximal.

The values above are taken from patent EP0406297B1, “Medical use of neuropeptide Antagonist G” (IMPERIAL CANCER RESEARCH TECHNOLOGY LIMITED, priority 1988, dated 1996).
